The values that follow are results of earlier work, collected in US11324821B2, “Triterpene saponin analogues” (ADJUVANCE TECHNOLOGIES, INC., priority 2017, dated 2022).

For the data set the following is noted: cited from earlier work.

Regarding QS-21, the “tolerated / maximum dose” value (cancer patients, above it local erythema and systemic flu-like symptoms) was 100 to 150 µg. Further, the maximum dose (in vivo) was 50 µg.
